Literature values as cited in patent publication US20220356443A1, “PRODUCTION METHOD FOR CEREBRAL ORGANOID” (KEIO UNIVERSITY, priority 2019, published 2022).

Test system: deposits of amyloid β peptide
Conditions: relative to thioflavin-T; general statement on the staining reagent

For CNc1ccc(-c2nc3ccccc3s2)cc1 [BTA-1, 2-(4′-methylaminophenyl)benzothiazole], the “affinity to deposits of amyloid β peptide, higher than that of thioflavin-T” value is given as “about 50 times”.
